Laboratory results: ChEMBL document CHEMBL1649413, “Structure-activity relationship of 4(5)-aryl-2-amino-1H-imidazoles, N1-substituted 2-aminoimidazoles and imidazo[1,2-a]pyrimidinium salts as inhibitors of biofilm formation by Salmonella typhimurium and Pseudomonas aeruginosa” (J Med Chem, 2011)
Calls of active or inactive are those of the source. The rule behind the calls is not given here.

Legend:
[1] = tested on: Salmonella typhimurium; assay: Antimicrobial activity against Salmonella Typhimurium ATCC 14028 assessed as inhibition of planktonic growth at 400 uM at 25 degC after 24 hrs; format: functional, organism-based; conditions: Salmonella enterica subsp. enterica serovar Typhimurium
[2] = tested on: Pseudomonas aeruginosa; assay: Antibiofilm activity in Pseudomonas aeruginosa assessed as inhibition of biofilm formation at 25 degC after 24 hrs; format: functional, organism-based
[3] = tested on: Salmonella typhimurium; assay: Antibiofilm activity in Salmonella Typhimurium ATCC 14028 assessed as inhibition of biofilm formation at 25 degC after 24 hrs; format: functional, organism-based, Salmonella enterica subsp. enterica serovar Typhimurium; conditions: Salmonella enterica, ATCC 14028, 24 h
[4] = tested on: Pseudomonas aeruginosa; assay: Antimicrobial activity against Pseudomonas aeruginosa assessed as inhibition of planktonic growth at 20 uM at 25 degC after 24 hrs; format: functional, organism-based
[5] = tested on: Salmonella typhimurium; assay: Antimicrobial activity against Salmonella Typhimurium ATCC 14028 assessed as inhibition of planktonic growth at 10 uM at 25 degC after 24 hrs; format: functional, organism-based; conditions: Salmonella enterica subsp. enterica serovar Typhimurium
[6] = tested on: Salmonella typhimurium; assay: Antimicrobial activity against Salmonella Typhimurium ATCC 14028 assessed as inhibition of planktonic growth at 20 uM at 25 degC after 24 hrs; format: functional, organism-based; conditions: Salmonella enterica subsp. enterica serovar Typhimurium

IC50 [2]	IC50 [3]	SMILES	inhibition [1]	also measured
–	–	CCNc1ncccn1	inactive	–
51.9 µM	185 µM	COc1ccc(CCn2c(-c3ccccc3)cnc2N)cc1OC	–	–
–	–	CCCCCCCCNc1ncccn1	inactive	–
–	–	CCCCCCCCCCCNc1ncccn1	inactive	–
> 800 µM	> 400 µM	CCCC[n+]1c(-c2ccc([N+](=O)[O-])cc2)cn2cccnc21.[O-][Cl+3]([O-])([O-])[O-]	–	–
–	–	c1ccc(CNc2ncccn2)cc1	inactive	–
> 400 µM	60.2 µM	CCCCCCCCCCCn1c(-c2ccc(-c3ccccc3)cc2)cnc1N	–	–
–	–	CCCCCCNc1ncccn1	inactive	–
104 µM	97.3 µM	Nc1ncc(-c2ccccc2)n1Cc1ccc2c(c1)OCO2	–	–
–	–	c1cnc(NC2CCCC2)nc1	inactive	–
–	–	CCCCCCCCCCNc1ncccn1	inactive	–
> 800 µM	427 µM	C[n+]1c(-c2cccc([N+](=O)[O-])c2)cn2cccnc21.[O-][Cl+3]([O-])([O-])[O-]	–	–
–	–	CCCCNc1ncccn1	inactive	–
35 µM	89.6 µM	Nc1ncc(-c2ccccc2)n1C1CC1	–	–
–	–	Brc1ccccc1Nc1ncccn1	inactive	–
–	–	COc1cccc(Nc2ncccn2)c1	inactive	–
–	–	CCCCCCCCCCCCCNc1ncccn1	inactive	–
–	–	CCCCCCCCCCCCCCNc1ncccn1	inactive	–
55.7 µM	56.2 µM	CCCCn1c(-c2ccc(F)cc2)cnc1N	–	–
–	–	C=CCNc1ncccn1	inactive	–
–	–	c1cnc(NC2CCCCCCCCCCC2)nc1	inactive	–

IC50 [2]	IC50 [3]	SMILES	inhibition [1]	also measured
> 800 µM	120 µM	Nc1ncc(-c2ccc(Cl)cc2)n1C1CCCCCCCCCCC1	–	–
67.8 µM	290 µM	CCn1c(-c2ccc(F)cc2)cnc1N	–	–
24.5 µM	26.3 µM	Nc1ncc(-c2ccc(-c3ccccc3)cc2)n1C1CCC1	–	–
> 800 µM	> 800 µM	CC[n+]1c(-c2ccc([N+](=O)[O-])cc2)cn2cccnc21.[O-][Cl+3]([O-])([O-])[O-]	–	–
159 µM	156 µM	COc1ccc(Cn2c(-c3ccccc3)cnc2N)cc1OC	–	–
69.8 µM	162 µM	Cn1c(-c2ccc([N+](=O)[O-])cc2)cnc1N	–	–
250 µM	561 µM	O=[N+]([O-])c1ccc(-c2cn3cccnc3[n+]2C2CCCCC2)cc1.[O-][Cl+3]([O-])([O-])[O-]	–	–
> 800 µM	> 800 µM	Nc1ncc(-c2ccc(-c3ccccc3)cc2)n1C1CCCCCCCCCCC1	–	–
186 µM	120 µM	COc1ccc(-c2cnc(N)[nH]2)cc1	–	–
13 µM	54.8 µM	Nc1ncc(-c2ccc(Cl)cc2)n1C1CC1	–	inhibition [4]: inactive
–	–	c1cnc(NC2CC2)nc1	inactive	–
–	–	c1cnc(NCc2ccc3c(c2)OCO3)nc1	inactive	–
> 800 µM	116 µM	CCCCCCCCn1c(-c2ccc(-c3ccc([N+](=O)[O-])cc3)cc2)cnc1N	–	–
–	–	CC(C)(C)[Si](C)(C)Oc1ccc(CNc2ncccn2)cc1	inactive	–
12.6 µM	70.7 µM	Nc1ncc(-c2ccccc2)n1C1CCCC1	–	inhibition [4]: inactive
95.2 µM	432 µM	Cn1c(-c2ccccc2)cnc1N	–	–
–	77.1 µM	COc1ccc(-c2[nH]c(N)nc2-c2ccccc2)cc1	–	–
57.8 µM	74.2 µM	Nc1ncc(-c2ccc(Br)cc2)n1Cc1ccccc1	–	–
32.1 µM	12.1 µM	CCCCCCn1c(-c2ccc(-c3ccccc3)cc2)cnc1N	–	inhibition [5]: Active; inhibition [6]: Active
–	–	c1cnc(NC2CCCCC2)nc1	inactive	–
–	–	c1ccc(Nc2ncccn2)cc1	inactive	–

IC50 [2]	IC50 [3]	SMILES	inhibition [1]	also measured
–	–	CCCCCNc1ncccn1	inactive	–
31.7 µM	62.3 µM	Cc1ccc(-c2cnc(N)n2C)cc1	–	–
–	–	c1cnc(NC2CCCCCC2)nc1	inactive	–
26.1 µM	55.1 µM	Nc1ncc(-c2ccccc2)n1Cc1ccccc1	–	–
–	–	CCCNc1ncccn1	inactive	–
–	–	CN(C)c1ncccn1	inactive	–
373 µM	114 µM	CCCCn1c(-c2ccc([N+](=O)[O-])cc2)cnc1N	–	–
60.5 µM	126 µM	CCn1c(-c2ccc(Br)cc2)cnc1N	–	–
49.6 µM	82 µM	CCCCCCCC[n+]1c(-c2ccc(S(C)(=O)=O)cc2)cn2cccnc21.[O-][Cl+3]([O-])([O-])[O-]	–	–
> 800 µM	170 µM	O=[N+]([O-])c1ccc(-c2cn3cccnc3[n+]2Cc2ccccc2)cc1.[O-][Cl+3]([O-])([O-])[O-]	–	–
240 µM	203 µM	Cc1ccc(-c2cnc(N)n2C(C)C)cc1	–	–
18.7 µM	16.2 µM	CCCCn1c(-c2ccc(Br)cc2)cnc1N	–	–
> 800 µM	> 400 µM	Cc1ccc(-c2nc(N)n(-c3ccccc3)c2-c2ccc(Cl)cc2)cc1	–	–
–	–	Cc1ccc(CNc2ncccn2)c(C)c1	inactive	–
–	–	CCCCCCCCCNc1ncccn1	inactive	–
–	–	CCCCCCCCCCCCNc1ncccn1	inactive	–
–	316 µM	N#Cc1ccc(-c2cnc(N)[nH]2)cc1	–	–
73.9 µM	9.2 µM	CCCCCn1c(-c2ccc(-c3ccccc3)cc2)cnc1N	–	–
–	–	C#CCN(C)c1ncccn1	inactive	–
331 µM	> 400 µM	Cn1c(-c2ccc(C#N)cc2)cnc1N	–	–
–	46.9 µM	Nc1nc(-c2ccccc2)c(-c2ccc(Cl)cc2)[nH]1	–	–

IC50 [2]	IC50 [3]	SMILES	inhibition [1]	also measured
> 800 µM	> 800 µM	CC(C)[n+]1c(-c2ccc([N+](=O)[O-])cc2)cn2cccnc21.[O-][Cl+3]([O-])([O-])[O-]	–	–
> 800 µM	> 800 µM	CS(=O)(=O)c1ccc(-c2cnc(N)[nH]2)cc1	–	–
126 µM	286 µM	CCn1c(-c2ccc([N+](=O)[O-])cc2)cnc1N	–	–
–	71.8 µM	Nc1nc(-c2ccc(Cl)cc2)c(-c2cc(F)cc(F)c2)[nH]1	–	–
> 800 µM	405 µM	CC(C)C[n+]1c(-c2ccc([N+](=O)[O-])cc2)cn2cccnc21.[O-][Cl+3]([O-])([O-])[O-]	–	–
–	–	c1cnc(NC2CCC2)nc1	inactive	–
14.8 µM	28.5 µM	Nc1ncc(-c2ccc(Cl)cc2)n1Cc1ccccc1	–	–
32 µM	37.3 µM	Nc1ncc(-c2ccc(F)cc2)n1Cc1ccccc1	–	–
–	–	Cc1ccc(CNc2ncccn2)cc1	inactive	–
> 800 µM	850 µM	CCCCCCCCn1c(-c2ccc(-c3ccc(-c4ccccc4)cc3)cc2)cnc1N	–	–
> 400 µM	> 800 µM	CCCCCCCCCCCCCCn1c(-c2ccc(-c3ccccc3)cc2)cnc1N	–	–
> 800 µM	360 µM	CC(C)n1c(-c2ccc([N+](=O)[O-])cc2)cnc1N	–	–
–	–	CCCCCCCNc1ncccn1	inactive	–
–	–	COc1ccc(CCNc2ncccn2)cc1	inactive	–
112 µM	108 µM	Cn1c(-c2ccc(Cl)cc2)cnc1N	–	–
–	–	Cc1cccc(Nc2ncccn2)c1	inactive	–
45.8 µM	77.7 µM	Cc1ccc(-c2cnc(N)[nH]2)cc1	–	–
–	–	c1cnc(NC2CCCCCCC2)nc1	inactive	–
